Laboratory results taken from the supplement of paper PMC10307832.

Experiments:
Assay in all cases: relative viability (nuclei count vs DMSO), 5 days (fraction); higher = more cells survive
ALW-II-49-7 + Phenformin = compound: Cc1ccc(C(=O)Nc2cccc(C(F)(F)F)c2)cc1Nc1cncc(C(N)=O)c1 [ALW-II-49-7] + N=C(N)NC(=N)NCCc1ccccc1 [Phenformin] (partner 250 µM)
Method in brief: (§1)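 Values are medians from duplicate plates. Each reflects relative viability, defined as the nuclei count of treated wells over that of vehicle wells. Lung cancer cell lines in 1536-well plates were pin-tool dosed one day after seeding with one drug alone or with a fixed anchor-drug dose plus five library-drug doses (not always all listed) in √10 steps, then fixed, stained and imaged at 4× after 5 days.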

XMD13-2 + Navitoclax = compound: C1CC1C(=O)NC2=NNC3=C2C=CC(=C3)C4=CC(=CC=C4)C(=O)NC5CC5 [XMD13-2] + CC1(C)CCC(c2ccc(Cl)cc2)=C(CN2CCN(c3ccc(C(=O)NS(=O)(=O)c4ccc(N[C@H](CCN5CCOCC5)CSc5ccccc5)c(S(=O)(=O)C(F)(F)F)c4)cc3)CC2)C1 [Navitoclax] (partner 0.5 µM)
Method in brief: as §1

ALW-II-49-7 + Navitoclax = compound: Cc1ccc(C(=O)Nc2cccc(C(F)(F)F)c2)cc1Nc1cncc(C(N)=O)c1 [ALW-II-49-7] + CC1(C)CCC(c2ccc(Cl)cc2)=C(CN2CCN(c3ccc(C(=O)NS(=O)(=O)c4ccc(N[C@H](CCN5CCOCC5)CSc5ccccc5)c(S(=O)(=O)C(F)(F)F)c4)cc3)CC2)C1 [Navitoclax] (partner 0.5 µM)
Method in brief: as §1

ALW-II-49-7 + Linsitinib = compound: Cc1ccc(C(=O)Nc2cccc(C(F)(F)F)c2)cc1Nc1cncc(C(N)=O)c1 [ALW-II-49-7] + C[C@]1(O)C[C@@H](c2nc(-c3ccc4ccc(-c5ccccc5)nc4c3)c3c(N)nccn32)C1 [Linsitinib] (partner 1 µM)
Method in brief: as §1

| Cell Line | relative viability (ALW-II-49-7 + Phenformin; first compound 0.08 µM) | relative viability (ALW-II-49-7 + Phenformin; first compound 0.253 µM) | relative viability (ALW-II-49-7 + Phenformin; first compound 0.8 µM) | relative viability (ALW-II-49-7 + Phenformin; first compound 2.53 µM) | relative viability (ALW-II-49-7 + Phenformin; first compound 8 µM) | relative viability (XMD13-2 + Navitoclax; first compound 0.05 µM) | relative viability (XMD13-2 + Navitoclax; first compound 0.1581 µM) | relative viability (XMD13-2 + Navitoclax; first compound 0.5 µM) | relative viability (XMD13-2 + Navitoclax; first compound 1.581 µM) | relative viability (XMD13-2 + Navitoclax; first compound 5 µM) | relative viability (ALW-II-49-7 + Navitoclax; first compound 0.08 µM) | relative viability (ALW-II-49-7 + Navitoclax; first compound 0.253 µM) | relative viability (ALW-II-49-7 + Navitoclax; first compound 0.8 µM) | relative viability (ALW-II-49-7 + Navitoclax; first compound 2.53 µM) | relative viability (ALW-II-49-7 + Navitoclax; first compound 8 µM) | relative viability (ALW-II-49-7 + Linsitinib; first compound 0.08 µM) | relative viability (ALW-II-49-7 + Linsitinib; first compound 0.253 µM) | relative viability (ALW-II-49-7 + Linsitinib; first compound 0.8 µM) | relative viability (ALW-II-49-7 + Linsitinib; first compound 2.53 µM) | relative viability (ALW-II-49-7 + Linsitinib; first compound 8 µM) |
| --- | --- | --- | --- | --- | --- | --- | --- | --- | --- | --- | --- | --- | --- | --- | --- | --- | --- | --- | --- | --- |
| NCI-H2342 | 0.572 | 0.602 | 0.635 | 0.497 | 0.564 |  |  |  |  |  |  |  |  |  |  |  |  |  |  |  |
| SW 1573 | 0.347 | 0.385 | 0.374 | 0.479 | 0.398 | 1.54 | 1.27 | 0.94 | 0.876 | 0.88 | 1.01 | 0.932 | 1.21 | 1.11 | 0.787 | 0.867 | 0.906 | 0.903 | 0.795 | 0.768 |
| NCI-H661 | 0.28 | 0.282 | 0.278 | 0.295 | 0.297 |  |  |  |  |  |  |  |  |  |  | 0.631 | 0.534 | 0.493 |  | 0.536 |
| ChaGo-K-1 | 0.48 | 0.584 | 0.465 | 0.46 | 0.401 | 1.06 | 0.882 | 0.799 |  | 0.942 | 0.931 | 1.45 | 1.27 | 1.29 | 0.753 |  |  |  |  |  |
| NCI-H650 | 0.519 | 0.481 | 0.396 | 0.449 | 0.334 |  |  |  |  |  |  |  |  |  |  | 0.836 | 0.793 | 0.941 | 0.811 | 0.54 |
